From patent publication US9650395B2, “Antibacterial compounds and methods for use” (PTC Therapeutics, Inc., priority 2011, dated 2017)
In brackets after ≈: the same amount, converted by molar mass. Where a name gives a salt, the structure may show the parent alone. Read-outs that look alike come from different tables or passages of the source.

Columns and labels:
[1] = system: super sensitive Gram-negative Escherichia coli (E. coli) BAS849; assay: Antibacterial activity, microbroth dilution MIC, E. coli BAS849; type: cell-based; details: Escherichia coli, read-out: MIC, BAS849
[2] = system: control Gram-negative E. coli 25922 strain; assay: Antibacterial activity, microbroth dilution MIC, E. coli 25922; type: cell-based, Escherichia coli; details: Escherichia coli; E. coli 25922, microbroth dilution; read-out: MIC, 25922
[3] = system: Gram-positive Staphylococcus aureus (S. aureus) 29213; assay: Antibacterial activity, microbroth dilution MIC, S. aureus 29213; type: cell-based; details: Staphylococcus aureus; S. aureus 29213, microbroth dilution; read-out: MIC, 29213
[4] = system: quinolone resistant E. coli LZ3111; assay: Antibacterial activity, MIC, quinolone resistant E. coli LZ3111; type: cell-based, Escherichia coli; details: Escherichia coli, read-out: MIC, LZ3111
From the text: The antibacterial activity from a microbroth dilution method may be presented as the minimum inhibitory concentration (MIC in […]). The MIC value is the lowest concentration of a drug which prevents macroscopically visible bacterial growth under test conditions.
Mutations in these regions are known to confer a high level resistance to the quinolone class of antibiotics.

[5] = E. coli BAS849, microbroth dilution

Compound: CCc1cc(C(=O)O)c(=O)[nH]c1-c1ccc(N2C[C@H]3CC[C@@H](NC)[C@H]3C2)cc1.Cl [Cpd 200, 5-ethyl-6-{4-[(3aR,4R,6aS)-4-(methylamino)hexahydrocyclopenta[c]pyrrol-2(1H)-yl]phenyl}-2-oxo-1,2-dihydropyridine-3-carboxylic acid hydrochloride]
- MIC [1, 5]: 1 to 3.5 µg/mL
- MIC [2]: 3.5 to 12.5 µg/mL
- MIC [3]: 12.5 to 150 µg/mL
- MIC [4]: 12.5 to 150 µg/mL

Compound: CCc1c(-c2ccc(N3CCCC3)cc2OC)[nH]c(=O)c(C(=O)O)c1O [Cpd 45, 5-ethyl-4-hydroxy-6-[2-methoxy-4-(pyrrolidin-1-yl)phenyl]-2-oxo-1,2-dihydropyridine-3-carboxylic acid]
- MIC [1, 5]: 3.5 to 12.5 µg/mL (≈ 9.77 to 34.9 µM)
- MIC [2]: 12.5 to 150 µg/mL (≈ 34.9 to 419 µM)
- MIC [3]: 3.5 to 12.5 µg/mL (≈ 9.77 to 34.9 µM)
- MIC [4]: 12.5 to 150 µg/mL (≈ 34.9 to 419 µM)

Compound: CCc1c(-c2ccc(N3CC4CC3CN4C(=O)OC(C)(C)C)cc2)[nH]c(=O)c(C(=O)O)c1O (centres unmarked) [Cpd 294, 6-{4-[5-(tert-butoxycarbonyl)-2,5-diazabicyclo[2.2.1]hept-2-yl]phenyl}-5-ethyl-4-hydroxy-2-oxo-1,2-dihydropyridine-3-carboxylic acid]
- MIC [1]: < 1 µg/mL
- MIC [2]: 12.5 to 150 µg/mL (≈ 27.4 to 329 µM)
- MIC [3]: 1 to 3.5 µg/mL (≈ 2.2 to 7.68 µM)
- MIC [4]: 12.5 to 150 µg/mL (≈ 27.4 to 329 µM)

Compound: CCc1cc(C(=O)O)c(=O)[nH]c1-c1ccc(N2C[C@H]3CCC[C@@H](N)[C@H]3C2)cc1.O=C(O)C(F)(F)F [Cpd 197, 6-{4-[(3aR,4R,7aS)-4-aminooctahydro-2H-isoindol-2-yl]phenyl}-5-ethyl-2-oxo-1,2-dihydropyridine-3-carboxylic acid trifluoroacetate]
- MIC [1]: 3.5 to 12.5 µg/mL
- MIC [2]: 12.5 to 150 µg/mL
- MIC [3]: 12.5 to 150 µg/mL
- MIC [4]: 12.5 to 150 µg/mL

Compound: CCc1c(-c2ccc(N3CCCCC3)cc2OC)[nH]c(=O)c(C(=O)O)c1O [Cpd 49, 5-ethyl-4-hydroxy-6-[2-methoxy-4-(piperidin-1-yl)phenyl]-2-oxo-1,2-dihydropyridine-3-carboxylic acid]
- MIC [1, 5]: 3.5 to 12.5 µg/mL (≈ 9.4 to 33.6 µM)
- MIC [2]: 12.5 to 150 µg/mL (≈ 33.6 to 403 µM)
- MIC [3]: 3.5 to 12.5 µg/mL (≈ 9.4 to 33.6 µM)
- MIC [4]: 12.5 to 150 µg/mL (≈ 33.6 to 403 µM)

Compound: CCc1cc(C(=O)O)c(=O)[nH]c1-c1ccc(N2C[C@H]3CCCC[C@@]3(CN(C)C)C2)cc1.O=C(O)C(F)(F)F [Cpd 205, 6-(4-{(3aR,7aS)-3a-[(dimethylamino)methyl]octahydro-2H-isoindol-2-yl}phenyl)-5-ethyl-2-oxo-1,2-dihydropyridine-3-carboxylic acid trifluoroacetate]
- MIC [1]: 1 to 3.5 µg/mL
- MIC [2]: 12.5 to 150 µg/mL
- MIC [3]: 12.5 to 150 µg/mL
- MIC [4]: 12.5 to 150 µg/mL

Compound: CCc1cc(C(=O)O)c(=O)[nH]c1-c1ccc(N2C[C@H]3CCC[C@@H](NC)[C@H]3C2)cc1 [Cpd 195, 5-ethyl-6-{4-[(3aR,4R,7aS)-4-(methylamino)octahydro-2H-isoiridol-2-yl]phenyl}-2-oxo-1,2-dihydropyridine-3-carboxylic acid trifluoroacetate]
- MIC [1]: 1 to 3.5 µg/mL
- MIC [2]: 3.5 to 12.5 µg/mL
- MIC [3]: 12.5 to 150 µg/mL
- MIC [4]: 12.5 to 150 µg/mL

Compound: CCc1c(-c2ccc(N3CCOCC3)cn2)[nH]c(=O)c(C(=O)O)c1O [Cpd 112, 5-ethyl-4-hydroxy-6-(5-morpholinopyridin-2-yl)-2-oxo-1,2-dihydropyridine-3-carboxylic acid]
- MIC [1, 5]: < 1 µg/mL
- MIC [2]: 12.5 to 150 µg/mL (≈ 36.2 to 434 µM)
- MIC [3]: 12.5 to 150 µg/mL (≈ 36.2 to 434 µM)
- MIC [4]: 12.5 to 150 µg/mL (≈ 36.2 to 434 µM)

Compound: CCc1cc(C(=O)O)c(=O)[nH]c1-c1ccc(CN2CCCC2)n1C [Cpd 350, 5-ethyl-6-(1-methyl-5-(pyrrolidin-1-ylmethyl)-1H-pyrrol-2-yl)-2-oxo-1,2-dihydropyridine-3-carboxylic acid]
- MIC [1, 5]: 12.5 to 150 µg/mL (≈ 37.9 to 455 µM)
- MIC [2]: 12.5 to 150 µg/mL (≈ 37.9 to 455 µM)
- MIC [3]: 12.5 to 150 µg/mL (≈ 37.9 to 455 µM)
- MIC [4]: 12.5 to 150 µg/mL (≈ 37.9 to 455 µM)

Compound: CCc1c(-c2ccc(OC)c(OC)c2OC)[nH]c(=O)c(C(=O)O)c1O [Cpd 42, 5-ethyl-4-hydroxy-2-oxo-6-(2,3,4-trimethoxyphenyl)-1,2-dihydropyridine-3-carboxylic acid]
- MIC [1, 5]: < 1 µg/mL
- MIC [2]: 12.5 to 150 µg/mL (≈ 35.8 to 429 µM)
- MIC [3]: 1 to 3.5 µg/mL (≈ 2.86 to 10 µM)
- MIC [4]: 12.5 to 150 µg/mL (≈ 35.8 to 429 µM)

Compound: CCc1cc(C(=O)O)c(=O)[nH]c1-c1ccc(N2CCC(C)(CN)C2)cc1 (centres unmarked) [Cpd 235, 6-{4-[3-(aminomethyl)-3-methylpyrrolidin-1-yl]phenyl}-5-ethyl-2-oxo-1,2-dihydropyridine-3-carboxylic acid]
- MIC [1, 5]: 1 to 3.5 µg/mL (≈ 2.81 to 9.85 µM)
- MIC [2]: 12.5 to 150 µg/mL (≈ 35.2 to 422 µM)
- MIC [3]: 12.5 to 150 µg/mL (≈ 35.2 to 422 µM)
- MIC [4]: 12.5 to 150 µg/mL (≈ 35.2 to 422 µM)

Compound: CCc1cc(C(=O)O)c(=O)[nH]c1-c1ccc(N2CCC(N(C)C)CC2)cc1 [Cpd 223, 6-{4-[4-(dimethylamino)piperidin-1-yl]phenyl}-5-ethyl-2-oxo-1,2-dihydropyridine-3-carboxylic acid]
- MIC [1, 5]: 12.5 to 150 µg/mL (≈ 33.8 to 406 µM)
- MIC [2]: 12.5 to 150 µg/mL (≈ 33.8 to 406 µM)
- MIC [3]: 12.5 to 150 µg/mL (≈ 33.8 to 406 µM)
- MIC [4]: 12.5 to 150 µg/mL (≈ 33.8 to 406 µM)

Compound: CCc1cc(C(=O)O)c(=O)[nH]c1-c1ccc(N2C[C@@H](N)[C@@H](O)C2)cc1.O=C(O)C(F)(F)F [Cpd 136, 6-{4-[(3R,4S)-3-amino-4-hydroxypyrrolidin-1-yl]phenyl}-5-ethyl-2-oxo-1,2-dihydropyridine-3-carboxylic acid trifluoroacetate]
- MIC [1]: 1 to 3.5 µg/mL
- MIC [2]: 12.5 to 150 µg/mL
- MIC [3]: 12.5 to 150 µg/mL
- MIC [4]: 12.5 to 150 µg/mL

Compound: CCc1cc(C(=O)O)c(=O)[nH]c1-c1ccc(N2C[C@H]3CC[C@@H](N(Cc4ccccc4)Cc4ccccc4)[C@H]3C2)cc1.O=C(O)C(F)(F)F [Cpd 201, 6-{4-[(3aR,4R,6aS)-4-(dibenzylamino)hexahydrocyclopenta[c]pyrrol-2(1H)-yl]phenyl}-5-ethyl-2-oxo-1,2-dihydropyridine-3-carboxylic acid trifluoroacetate]
- MIC [1]: 3.5 to 12.5 µg/mL
- MIC [2]: 12.5 to 150 µg/mL
- MIC [3]: 12.5 to 150 µg/mL
- MIC [4]: 12.5 to 150 µg/mL
